Data: ChEMBL document CHEMBL2429776, “Cyclic 3-alkyl pyridinium alkaloid monomers from a New Zealand Haliclona sp. marine sponge” (J Nat Prod, 2013)
The source made the active and inactive calls. No cut-off for these calls is given here.

Assays:
Format in all cases: functional, organism-based
Saccharomyces cerevisiae = experiment: Antifungal activity against Saccharomyces cerevisiae YCG 117 after 18 hrs; settings: YCG 117, 18 h
Candida albicans [1] = experiment: Antifungal activity against Candida albicans ATCC 10231 at 2 ug after 24 hrs by disk-diffusion assay
Enterococcus faecalis [2] = experiment: Antimicrobial activity against Enterococcus faecalis ATCC 19433 at 2 ug after 24 hrs by disk-diffusion assay
Candida albicans [3] = experiment: Antifungal activity against Candida albicans ATCC 10231 at 8 ug after 24 hrs by disk-diffusion assay
Enterococcus faecalis [4] = experiment: Antimicrobial activity against Enterococcus faecalis ATCC 19433 at 8 ug after 24 hrs by disk-diffusion assay
Candida albicans [5] = experiment: Antifungal activity against Candida albicans ATCC 10231 at 20 ug after 24 hrs by disk-diffusion assay
Enterococcus faecalis [6] = experiment: Antimicrobial activity against Enterococcus faecalis ATCC 19433 at 20 ug after 24 hrs by disk-diffusion assay

IC50 (Saccharomyces cerevisiae) [µg/mL]	SMILES	Activity (Candida albicans [1])	Activity (Enterococcus faecalis [2])	Activity (Candida albicans [3])	Activity (Enterococcus faecalis [4])	Activity (Candida albicans [5])	Activity (Enterococcus faecalis [6])
1.5	C1=C\CCCCCC[n+]2cccc(c2)CCCCCC/1	inactive	inactive	inactive	inactive	inactive	inactive
1.5	C1=C\CCCCC[n+]2cccc(c2)CCCCCC/1	inactive	inactive	inactive	inactive	inactive	inactive
1.5	c1cc2c[n+](c1)CCCCCCCCCCCCC2	inactive	inactive	inactive	inactive	inactive	inactive
